Where two headings read alike, the source gives them in different places.
Experiments:
MiaPaca2 cells = test: Ras cellular assay, growth of cells with K-Ras G12C mutation; type: cell-based; details: Homo sapiens, MIA PaCa-2
Method in brief: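 MIA PaCa-2 cells (K-Ras G12C, about 125-150 cells/well) grown in 0.25% soft agar over a 0.6% agar base, compound added on day 2 at 0.3% final DMSO. Growth read on day 10 by Cell Titer 96 AQueous absorbance (490 nm, reference 660 nm) against time-zero wells; IC50 from four-parameter fit.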

KRAS WT = target: T1, KRAS WT (Homo sapiens, UniProt P01116); test: HTRF assay, wildtype KRAS interaction with SOS1; type: biochemical; details: bins <500 nM / 500 nM to 1000 nM, read-out: Inhibition of KRAS WT (IC50)
T1 construct: made in house; host or cells: E. coli, e.g. BL21 (DE3)
T1 sequence (P01116 1-188 isoform P01116-2): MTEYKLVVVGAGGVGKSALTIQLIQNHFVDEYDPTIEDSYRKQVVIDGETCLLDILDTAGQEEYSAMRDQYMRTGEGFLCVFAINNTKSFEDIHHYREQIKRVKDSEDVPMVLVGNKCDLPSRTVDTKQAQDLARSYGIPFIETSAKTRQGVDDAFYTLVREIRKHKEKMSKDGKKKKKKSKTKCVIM

KRAS G12D = target: T2, KRAS G12D (Homo sapiens, UniProt P01116, G12D); test: HTRF assay, KRAS G12D interaction with SOS1; type: biochemical
T2 construct: made in house; host or cells: E. coli, e.g. BL21 (DE3)
T2 sequence (P01116 1-188 isoform P01116-2 G12D): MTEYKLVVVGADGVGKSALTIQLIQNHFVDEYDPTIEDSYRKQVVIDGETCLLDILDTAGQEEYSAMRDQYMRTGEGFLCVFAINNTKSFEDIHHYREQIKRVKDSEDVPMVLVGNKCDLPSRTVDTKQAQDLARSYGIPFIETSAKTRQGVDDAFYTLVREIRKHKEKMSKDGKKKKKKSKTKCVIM

KRAS G12V = target: T3, KRAS G12V (Homo sapiens, UniProt P01116, G12V); test: HTRF assay, KRAS G12V interaction with SOS1; type: biochemical
T3 construct: made in house; host or cells: E. coli, e.g. BL21 (DE3)
T3 sequence (P01116 1-188 isoform P01116-2 G12V): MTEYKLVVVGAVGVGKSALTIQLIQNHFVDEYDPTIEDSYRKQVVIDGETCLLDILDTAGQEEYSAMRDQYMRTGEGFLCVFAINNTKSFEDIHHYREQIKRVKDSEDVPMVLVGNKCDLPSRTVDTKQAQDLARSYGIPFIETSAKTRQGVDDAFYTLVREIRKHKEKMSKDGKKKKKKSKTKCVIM

LS123 cells = test: Ras cellular assay, growth of cells with K-Ras G12S mutation (CellTiter-Glo); type: cell-based; details: Homo sapiens, LS-123; KRAS G12S cell line; read-out: IC50 against LS123 cells
Description: For example, this assay can be also used to assess selective growth inhibition of a mutant Ras protein relative to a wildtype or different mutant Ras protein.
A549 (ATCC CRL-185) and LS123 (ATCC CRL-255) cell lines comprise a G12S mutation and can be used to assess Ras cellular signaling in vitro, e.g., in response to treatment with a compound described herein. A549 culture medium is prepared with RPMI-1640 and 10% heat-inactivated FBS. LS123 culture medium is prepared with RPMI-1640 and 10% heat-inactivated FBS. A CellTiter-Glo (CTG) luminescent based assay (Promega) is used to assess growth of the cells, as a measurement of the ability of the compounds herein to inhibit Ras signaling in the cells. The cells (e.g., 800 per well) are seeded in their respective culture medium in standard tissue culture-treated 384-well format plates (Falcon #08-772-116) or ultra-low attachment surface 384-well format plates (S-Bio #MS-9384WZ). […] Cell viability can be monitored (e.g., approximately 6 days later) according to the manufacturer's recommended instructions, where CellTiter-Glo reagent is added (e.g., approximately 10 μL), vigorously mixed, covered, and placed on a plate shaker (e.g., approximately for 20 min) to ensure sufficient cell lysis prior to assessment of luminescent signal. The IC50 values are determined using the four parameter fit. […]

KRAS G12S = target: T4, KRAS G12S (Homo sapiens, UniProt P01116, G12S); test: HTRF assay, KRAS G12S interaction with SOS1; type: biochemical
T4 construct: made in house; host or cells: E. coli, e.g. BL21 (DE3)
T4 sequence (P01116 1-188 isoform P01116-2 G12S): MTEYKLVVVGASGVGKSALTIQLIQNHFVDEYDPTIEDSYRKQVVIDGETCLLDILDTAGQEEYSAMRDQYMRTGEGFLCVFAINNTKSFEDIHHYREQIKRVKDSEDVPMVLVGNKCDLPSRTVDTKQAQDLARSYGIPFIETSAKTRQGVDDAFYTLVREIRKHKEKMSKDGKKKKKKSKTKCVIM

[1] = bins <500 nM / 500 nM to 1000 nM, read-out: Inhibition of KRAS G12D (IC50)
[2] = bins <500 nM / 500 nM to 1000 nM, read-out: Inhibition of KRAS G12V (IC50)
[3] = bins <500 nM / 500 nM to 1000 nM, read-out: Inhibition of KRAS G12S (IC50)
[4] = cell proliferation assay, bins ≤500 nM / >500 nM, read-out: Inhibition of MiaPaca2 Cells (IC50)

Compound | IC50 (MiaPaca2 cells; KRAS G12C cell line, read-out: IC50 against MiaPaca2 cells) [nM] | IC50 (KRAS WT) [nM] | IC50 (KRAS G12D; [1]) [nM] | IC50 (KRAS G12D; read-out: IC50 against KRAS G121) [nM] | IC50 (KRAS G12V; [2]) [nM] | IC50 (KRAS G12V; read-out: IC50 against KRAS G12V) [nM] | IC50 (LS123 cells) [nM] | IC50 (KRAS G12S; [3]) [nM] | IC50 (KRAS G12S; read-out: IC50 against KRAS G12S) [nM] | IC50 (MiaPaca2 cells; [4]) [nM]
CCN(c1nc(OCC23CCCN2C(COc2cc(C(F)(F)F)ncn2)CC3)nc2c(F)c(-c3ccc(F)c4sc(N)c(C#N)c34)c(Cl)cc12)[C@@H]1CCN(C(=O)n2cc(C)nc2C)[C@@H]1C (single isomer, unassigned) [Compound 197] | 0.42 | < 500 | < 500 | < 5 | < 500 | < 5 | 4.6 | < 500 | < 5 | 
CCN(c1nc(OC[C@@]23CCCN2C[C@H](F)C3)nc2c(F)c(-c3cc(N)c(F)c(C)c3C(F)(F)F)ncc12)[C@@H]1CCN(C(=O)n2cnc(Cl)n2)[C@@H]1C [Compound 208, ((2R,3R)-3-((7-(5-amino-4-fluoro-3-methyl-2-(trifluoromethyl)phenyl)-8-fluoro-2-(((2R,7aS)-2-fluorotetrahydro-1H-pyrrolizin-7a(5H)-yl)methoxy)pyrido[4,3-d]pyrimidin-4-yl)(ethyl)amino)-2-methylpyrrolidin-1-yl)(3-chloro-1H-1,2,4-triazol-1-yl)methanone] |  | 500 to 1000 | < 500 |  | < 500 |  |  | < 500 |  | ≤ 500
Cc1cn(C(=O)N2C[C@]3(CC[C@H](C)N(c4nc(OC[C@@]56CCCN5C[C@H](F)C6)nc5c(F)c(-c6ccc(F)c7sc(N)c(C#N)c67)c(Cl)cc45)C3)[C@H]2C2(C)CC2)cn1 [Compound 210, 2-amino-4-(6-chloro-8-fluoro-2-(((2R,7aS)-2-fluorotetrahydro-1H-pyrrolizin-7a(5H)-yl)methoxy)-4-((1R,4R,7S)-7-methyl-2-(4-methyl-1H-imidazole-1-carbonyl)-1-(1-methylcyclopropyl)-2,6-diazaspiro[3.5]nonan-6-yl)quinazolin-7-yl)-7-fluorobenzo[b]thiophene-3-carbonitrile] |  | < 500 | < 500 |  | < 500 |  |  | < 500 |  | ≤ 500
C[C@@H]1[C@H](N(C)c2nc(OC[C@@]34CCCN3C[C@H](F)C4)nc3c(F)c(-c4ccc(F)c5sc(N)c(C#N)c45)c(Cl)cc23)CCN1C(=O)n1cnc(Cl)c1 [Compound 211, 2-amino-4-(6-chloro-4-(((2R,3R)-1-(4-chloro-1H-imidazole-1-carbonyl)-2-methylpyrrolidin-3-yl)(methyl)amino)-8-fluoro-2-(((2R,7aS)-2-fluorotetrahydro-1H-pyrrolizin-7a(5H)-yl)methoxy)quinazolin-7-yl)-7-fluorobenzo[b]thiophene-3-carbonitrile] |  | < 500 | < 500 |  | < 500 |  |  | < 500 |  | ≤ 500
CCN(c1nc(OC[C@@]23CCCN2C[C@@]2(CC2(F)F)C3)nc2c(F)c(-c3ccc(F)c4sc(N)c(C#N)c34)c(C(F)(F)F)cc12)[C@@H]1CCN(C(=O)n2cnc(F)n2)[C@@H]1C [Compound 212, 2-amino-4-(2-(((1S,7a′S)-2,2-difluorodihydro-1′H,3′H-spiro[cyclopropane-1,2′-pyrrolizin]-7a′(5′H)-yl)methoxy)-4-(ethyl((2R,3R)-1-(3-fluoro-1H-1,2,4-triazole-1-carbonyl)-2-methylpyrrolidin-3-yl)amino)-8-fluoro-6-(trifluoromethyl)quinazolin-7-yl)-7-fluorobenzo[b]thiophene-3-carbonitrile] |  | < 500 | < 500 |  | < 500 |  |  | < 500 |  | ≤ 500
CC(C)c1cn(C(=O)N2CC[C@@H](N(C)c3nc(OC[C@@]45CCCN4C[C@H](F)C5)nc4c(F)c(-c5ccc(F)c6sc(N)c(C#N)c56)c(Cl)cc34)[C@H]2C)cn1 [Compound 213, 2-amino-4-(6-chloro-8-fluoro-2-(((2R,7aS)-2-fluorotetrahydro-1H-pyrrolizin-7a(5H)-yl)methoxy)-4-(((2R,3R)-1-(4-isopropyl-1H-imidazole-1-carbonyl)-2-methylpyrrolidin-3-yl)(methyl)amino)quinazolin-7-yl)-7-fluorobenzo[b]thiophene-3-carbonitrile] |  | < 500 | < 500 |  | < 500 |  |  | < 500 |  | ≤ 500
CC[C@H]1N(C(=O)n2cnc(C)c2C)C[C@]12CCCCN(c1nc(OC[C@@]34CCCN3C[C@H](F)C4)nc3c(F)c(-c4ccc(F)c5sc(N)c(C#N)c45)c(Cl)cc13)C2 [Compound 215, 2-amino-4-(6-chloro-4-((1R,4R)-2-(4,5-dimethyl-1H-imidazole-1-carbonyl)-1-ethyl-2,6-diazaspiro[3.6]decan-6-yl)-8-fluoro-2-(((2R,7aS)-2-fluorotetrahydro-1H-pyrrolizin-7a(5H)-yl)methoxy)quinazolin-7-yl)-7-fluorobenzo[b]thiophene-3-carbonitrile] |  | < 500 | < 500 |  | < 500 |  |  | < 500 |  | ≤ 500
CC(C)[C@@H]1C[C@H](N(C)c2nc(OC[C@@]34CCCN3C[C@H](F)C4)nc3c(F)c(-c4ccc(F)c5sc(N)c(C#N)c45)c(Cl)cc23)CN1C(=O)n1cnc(Cl)n1 [Compound 216, 2-amino-4-(6-chloro-4-(((3S,5S)-1-(3-chloro-1H-1,2,4-triazole-1-carbonyl)-5-isopropylpyrrolidin-3-yl)(methyl)amino)-8-fluoro-2-(((2R,7aS)-2-fluorotetrahydro-1H-pyrrolizin-7a(5H)-yl)methoxy)quinazolin-7-yl)-7-fluorobenzo[b]thiophene-3-carbonitrile] |  | < 500 | 500 to 1000 |  | < 500 |  |  | < 500 |  | > 500
CN(c1nc(OC[C@@]23CCCN2C[C@H](F)C3)nc2c(F)c(-c3ccc(F)c4sc(N)c(C#N)c34)c(Cl)cc12)[C@H]1CCN(C(=O)n2ccnc2)C1 [Compound 218, 4-(4-(((S)-1-(1H-imidazole-1-carbonyl)pyrrolidin-3-yl)(methyl)amino)-6-chloro-8-fluoro-2-(((2R,7aS)-2-fluorotetrahydro-1H-pyrrolizin-7a(5H)-yl)methoxy)quinazolin-7-yl)-2-amino-7-fluorobenzo[b]thiophene-3-carbonitrile] |  | < 500 | < 500 |  | < 500 |  |  | < 500 |  | ≤ 500
C[C@@H]1[C@H](N(C)c2nc(OC[C@@]34CCCN3C[C@H](F)C4)nc3c(F)c(-c4ccc(F)c5sc(N)c(C#N)c45)c(Cl)cc23)CCN1C(=O)n1cc(C#N)cn1 [Compound 220, 1-((2R,3R)-3-((7-(2-amino-3-cyano-7-fluorobenzo[b]thiophen-4-yl)-6-chloro-8-fluoro-2-(((2R,7aS)-2-fluorotetrahydro-1H-pyrrolizin-7a(5H)-yl)methoxy)quinazolin-4-yl)(methyl)amino)-2-methylpyrrolidine-1-carbonyl)-1H-pyrazole-4-carbonitrile] |  | < 500 | < 500 |  | < 500 |  |  | < 500 |  | ≤ 500

Reference: patent US20260217735A1, “HETEROCYCLES AND USES THEREOF” (Kumquat Biosciences Inc., priority 2023, published 2026)
